# Assay results: ChEMBL document CHEMBL5523721, “Derivatives of D(-) glutamine-based MMP-2 inhibitors as an effective remedy for the management of chronic myeloid leukemia-Part-I: Synthesis, biological screening and in silico binding interaction analysis” (Eur J Med Chem, 2024)
# The source made the active and inactive calls. No cut-off for these calls is given here.
# How the values were obtained:
# [1] = system: K562; assay: Antiproliferative activity against human K562 cells incubated for 72 hrs by PrestoBlue assay; conditions: K562, 72 h
# [2] = system: U-87 MG; assay: Antiproliferative activity against human U-87 MG cells incubated for 72 hrs by MTT assay
# [3] = system: HT-1080; assay: Antiproliferative activity against human HT-1080 cells incubated for 72 hrs by MTT assay; conditions: HT-1080, 72 h
# [4] = Cytotoxicity against HEK293 cells incubated for 72 hrs by MTT assay; format: toxicity, cell-based; conditions: human
# [5] = system: A549; assay: cells; conditions: Homo sapiens, A549, 72 h
# Description: Antiproliferative activity against human A549 cells incubated for 72 hrs by MTT assay
# [6] = target: Neutrophil collagenase (Homo sapiens, UniProt P22894); assay: Inhibition of MMP-8 (unknown origin)
# Sequence of Neutrophil collagenase (P22894 whole entry): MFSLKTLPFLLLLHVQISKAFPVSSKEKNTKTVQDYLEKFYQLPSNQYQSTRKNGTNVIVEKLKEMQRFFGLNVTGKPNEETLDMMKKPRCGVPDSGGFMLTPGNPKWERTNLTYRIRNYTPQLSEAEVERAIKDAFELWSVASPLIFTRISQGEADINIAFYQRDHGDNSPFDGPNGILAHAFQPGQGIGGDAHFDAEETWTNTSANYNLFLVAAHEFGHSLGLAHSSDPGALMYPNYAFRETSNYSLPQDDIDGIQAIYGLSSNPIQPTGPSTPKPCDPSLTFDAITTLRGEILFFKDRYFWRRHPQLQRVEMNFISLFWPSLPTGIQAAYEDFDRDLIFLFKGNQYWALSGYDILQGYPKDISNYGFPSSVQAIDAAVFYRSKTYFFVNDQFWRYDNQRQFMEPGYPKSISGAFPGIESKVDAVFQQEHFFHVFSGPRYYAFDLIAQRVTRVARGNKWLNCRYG
# [7] = system: ACHN; assay: Antiproliferative activity against human ACHN cells incubated for 72 hrs by MTT assay
# [8] = target: 72 kDa type IV collagenase (Homo sapiens, UniProt P08253); assay: Inhibition of MMP-2 (unknown origin) using chromogenic substrate incubated for 1 hr by microplate photometer analysis
# Sequence of 72 kDa type IV collagenase (P08253 whole entry): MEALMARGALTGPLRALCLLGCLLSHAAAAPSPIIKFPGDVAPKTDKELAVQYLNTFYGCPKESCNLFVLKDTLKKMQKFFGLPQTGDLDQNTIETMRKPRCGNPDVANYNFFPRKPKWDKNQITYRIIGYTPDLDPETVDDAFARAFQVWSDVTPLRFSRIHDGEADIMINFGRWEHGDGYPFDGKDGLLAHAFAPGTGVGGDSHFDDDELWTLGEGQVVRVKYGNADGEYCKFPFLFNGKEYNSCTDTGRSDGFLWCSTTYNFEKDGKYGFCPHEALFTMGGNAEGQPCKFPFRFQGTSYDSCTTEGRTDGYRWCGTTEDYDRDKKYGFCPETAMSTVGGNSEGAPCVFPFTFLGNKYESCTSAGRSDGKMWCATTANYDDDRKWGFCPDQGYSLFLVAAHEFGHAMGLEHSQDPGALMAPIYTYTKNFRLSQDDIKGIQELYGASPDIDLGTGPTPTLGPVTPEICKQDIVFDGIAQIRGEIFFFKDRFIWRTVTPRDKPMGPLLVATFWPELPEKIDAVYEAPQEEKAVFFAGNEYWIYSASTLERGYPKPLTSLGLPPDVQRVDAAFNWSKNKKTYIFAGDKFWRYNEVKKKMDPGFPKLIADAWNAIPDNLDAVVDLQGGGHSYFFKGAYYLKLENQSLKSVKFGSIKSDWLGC
# [9] = target: Matrix metalloproteinase-9 (Homo sapiens, UniProt P14780); assay: Inhibition of MMP-9 (unknown origin) using chromogenic substrate incubated for 1 hr by microplate photometer analysis
# Sequence of Matrix metalloproteinase-9 (P14780 whole entry): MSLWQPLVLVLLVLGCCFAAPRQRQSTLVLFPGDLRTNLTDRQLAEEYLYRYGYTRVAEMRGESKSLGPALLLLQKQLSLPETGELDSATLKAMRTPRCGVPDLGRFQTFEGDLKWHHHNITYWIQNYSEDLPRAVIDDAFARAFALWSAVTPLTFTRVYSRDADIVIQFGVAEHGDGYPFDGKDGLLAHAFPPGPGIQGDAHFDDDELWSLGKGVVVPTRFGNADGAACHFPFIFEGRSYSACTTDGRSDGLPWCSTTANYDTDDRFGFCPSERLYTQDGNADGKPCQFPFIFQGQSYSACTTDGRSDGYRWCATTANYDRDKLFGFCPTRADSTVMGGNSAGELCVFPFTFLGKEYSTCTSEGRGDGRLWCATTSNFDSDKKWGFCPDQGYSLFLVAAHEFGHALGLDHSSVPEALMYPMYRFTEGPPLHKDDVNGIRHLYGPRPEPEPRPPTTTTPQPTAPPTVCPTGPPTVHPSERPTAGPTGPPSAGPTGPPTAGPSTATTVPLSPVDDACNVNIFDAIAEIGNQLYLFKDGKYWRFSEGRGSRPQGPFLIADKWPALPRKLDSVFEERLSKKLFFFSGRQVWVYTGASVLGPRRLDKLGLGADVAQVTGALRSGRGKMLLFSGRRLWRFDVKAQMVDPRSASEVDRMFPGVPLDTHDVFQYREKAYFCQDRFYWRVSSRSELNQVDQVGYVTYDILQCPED
# [10] = target: Macrophage metalloelastase (Homo sapiens, UniProt P39900); assay: Inhibition of MMP-12 (unknown origin)
# Sequence of Macrophage metalloelastase (P39900 whole entry): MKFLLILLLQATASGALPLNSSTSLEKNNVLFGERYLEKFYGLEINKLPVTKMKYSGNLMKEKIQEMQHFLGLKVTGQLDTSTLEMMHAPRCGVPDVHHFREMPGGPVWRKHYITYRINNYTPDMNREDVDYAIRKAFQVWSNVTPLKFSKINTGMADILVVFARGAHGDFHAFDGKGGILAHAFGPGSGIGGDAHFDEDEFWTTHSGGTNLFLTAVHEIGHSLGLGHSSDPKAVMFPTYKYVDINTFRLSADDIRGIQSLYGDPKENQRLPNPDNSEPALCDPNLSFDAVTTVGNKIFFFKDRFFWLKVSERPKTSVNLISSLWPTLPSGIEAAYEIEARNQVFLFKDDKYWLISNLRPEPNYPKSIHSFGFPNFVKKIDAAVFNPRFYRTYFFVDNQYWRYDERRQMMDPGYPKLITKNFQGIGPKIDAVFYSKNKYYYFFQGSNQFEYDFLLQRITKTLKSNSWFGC
# [11] = system: K562; assay: Induction of cell cycle arrest in human K562 cells assessed as cell population at G1 phase at 4.919 uM incubated for 72 hrs by propidium iodide staining based flow cytometry analysis (reference value: 44.4 +/- 1.5%); format: functional
# [12] = system: K562; assay: Induction of cell cycle arrest in human K562 cells assessed as cell population at S phase at 4.919 uM incubated for 72 hrs by propidium iodide staining based flow cytometry analysis (reference value: 32.7 +/- 3.1%); format: functional
# [13] = system: K562; assay: Induction of cell cycle arrest in human K562 cells assessed as cell population at G2/M phase at 4.919 uM incubated for 72 hrs by propidium iodide staining based flow cytometry analysis (reference value: 22.9 +/- 1.9%); format: functional
# [14] = system: K562; assay: Induction of cell cycle arrest in human K562 cells assessed as cell population at sub-G1 phase at 4.919 uM incubated for 72 hrs by propidium iodide staining based flow cytometry analysis; format: functional
# [15] = system: K562; assay: Induction of apoptosis in human K562 cells assessed as total apoptotic cells at 4.919 uM incubated for 72 hrs by Annexin-V/PI staining based flow cytometry analysis (reference value: 2.6 +/- 1.1%); format: functional
# [16] = system: ACHN; assay: Antiangiogenic activity in human ACHN cells assessed as reduction in mesh length at 26.764 uM incubated for 72 hrs by microscopic analysis; format: functional, cell-based
# [17] = system: ACHN; assay: Antiangiogenic activity in human ACHN cells assessed as reduction in branch length at 26.764 uM incubated for 72 hrs by microscopic analysis; format: functional, cell-based
# [18] = system: ACHN; assay: Antiangiogenic activity in human ACHN cells assessed as reduction in total segment length at 26.764 uM incubated for 72 hrs by microscopic analysis; format: functional, cell-based
# [19] = system: ACHN; assay: Antiangiogenic activity in human ACHN cells assessed as reduction in total tube length at 26.764 uM incubated for 72 hrs by microscopic analysis; format: functional, cell-based
# [20] = Downregulation of MMP-2 expression in human K562 cells at 4.919 uM incubated for 48 hrs by flow cytometry analysis; format: functional
# [21] = system: K562; assay: Antiproliferative activity against human K562 cells; format: functional, cell-based
# [22] = system: K562; assay: Induction of cell cycle arrest in human K562 cells assessed as cell population at G1 phase at 1.992 uM incubated for 72 hrs by propidium iodide staining based flow cytometry analysis (reference value: 44.4 +/- 1.5%); format: functional
# [23] = system: K562; assay: Induction of cell cycle arrest in human K562 cells assessed as cell population at S phase at 1.992 uM incubated for 72 hrs by propidium iodide staining based flow cytometry analysis (reference value: 32.7 +/- 3.1%); format: functional
# [24] = system: K562; assay: Induction of cell cycle arrest in human K562 cells assessed as cell population at G2/M phase at 1.992 uM incubated for 72 hrs by propidium iodide staining based flow cytometry analysis (reference value: 22.9 +/- 1.9%); format: functional
# [25] = system: K562; assay: Induction of cell cycle arrest in human K562 cells assessed as cell population at sub-G1 phase at 1.992 uM incubated for 72 hrs by propidium iodide staining based flow cytometry analysis; format: functional
# [26] = system: K562; assay: Induction of apoptosis in human K562 cells assessed as total apoptotic cells at 1.992 uM incubated for 72 hrs by Annexin-V/PI staining based flow cytometry analysis (reference value: 2.6 +/- 1.1%); format: functional
# [27] = system: K562; assay: Induction of apoptosis in human K562 cells at 1.992 uM by AO/EB staining based fluorescence microscopic analysis; format: functional, cell-based; conditions: time 24-72 hrs, TDE = time-dependent effect
# [28] = system: K562; assay: Induction of apoptosis in human K562 cells assessed as appearance of apoptotic cells at 1.992 uM after 24 to 72 hrs by AO/EB staining based fluorescence microscopic analysis; format: functional, cell-based; conditions: time 24-72 hrs
# [29] = system: K562; assay: Induction of apoptosis in human K562 cells assessed as increase in early apoptotic cells at 1.992 uM after 24 hrs by AO/EB staining based fluorescence microscopic analysis; format: functional, cell-based
# [30] = system: K562; assay: Induction of apoptosis in human K562 cells assessed as increase in late apoptotic cells at 1.992 uM after 48 hrs by AO/EB staining based fluorescence microscopic analysis; format: functional, cell-based
# [31] = system: K562; assay: Induction of apoptosis in human K562 cells assessed as increase in late apoptotic dead cells at 1.992 uM after 72 hrs by AO/EB staining based fluorescence microscopic analysis; format: functional, cell-based
# [32] = system: K562; assay: Induction of apoptosis in human K562 cells assessed as increase in necrotic cells at 1.992 uM after 72 hrs by AO/EB staining based fluorescence microscopic analysis; format: functional, cell-based
# [33] = system: K562; assay: Induction of apoptosis in human K562 cells assessed as appearance of nucleus with fragmented DNA at 1.992 uM after 72 hrs by AO/EB staining based fluorescence microscopic analysis; format: functional, cell-based
# [34] = system: K562; assay: Induction of apoptosis in human K562 cells assessed as morphological changes at 1.992 uM after 72 hrs by AO/EB staining based fluorescence microscopic analysis; format: functional, cell-based
# [35] = system: ACHN; assay: Antiangiogenic activity in human ACHN cells assessed as reduction in mesh length at 17.157 uM incubated for 72 hrs by microscopic analysis; format: functional, cell-based
# [36] = system: ACHN; assay: Antiangiogenic activity in human ACHN cells assessed as reduction in branch length at 17.157 uM incubated for 72 hrs by microscopic analysis; format: functional, cell-based
# [37] = system: ACHN; assay: Antiangiogenic activity in human ACHN cells assessed as reduction in total segment length at 17.157 uM incubated for 72 hrs by microscopic analysis; format: functional, cell-based
# [38] = system: ACHN; assay: Antiangiogenic activity in human ACHN cells assessed as reduction in total tube length at 17.157 uM incubated for 72 hrs by microscopic analysis; format: functional, cell-based
# [39] = Downregulation of MMP-2 expression in human K562 cells at 1.992 uM incubated for 48 hrs by flow cytometry analysis; format: functional
Compound,IC50 [1] [µM],IC50 [2] [µM],IC50 [3] [µM],IC50 at 72 h [4] [µM],IC50 [5] [µM],IC50 [6] [µM],further results
CCNC(=O)CC[C@@H](NS(=O)(=O)c1ccc([N+](=O)[O-])cc1)C(=O)O,7.76,16.2,32.9,145,12.2,–,–
NC(=O)CC[C@@H](NS(=O)(=O)c1ccc([N+](=O)[O-])cc1)C(=O)O,9.73,26.4,20.5,173,8.99,–,–
Cc1ccc(S(=O)(=O)N[C@H](CCC(=O)NCC(C)C)C(=O)O)cc1,2.35,26.3,39.2,645,32.2,> 2,–
O=C(CC[C@@H](NS(=O)(=O)c1ccc([N+](=O)[O-])cc1)C(=O)O)NCc1ccccc1,4.91,17.9,57.5,114,5.68,> 2,IC50 [7]: 26.8 µM; IC50 [8]: 0.273 µM; IC50 [9]: 0.561 µM; IC50 [10]: 1.72 µM; Activity [11]: 49%; Activity [12]: 33.6%; Activity [13]: 17.4%; Activity [14]: 4.6%; Activity [15]: 26.7%; Activity [16]: Active; Activity [17]: Active; Activity [18]: Active; Activity [19]: Active; Activity [20]: 19.6%
Cc1ccc(S(=O)(=O)N[C@H](CCC(=O)NC(C)C)C(=O)O)cc1,4.24,20.3,19.5,347,17.3,–,–
CCCCNC(=O)CC[C@@H](NS(=O)(=O)c1ccc([N+](=O)[O-])cc1)C(=O)O,–,29,37.6,368,18.4,> 2,IC50 [21]: 5.26 µM; IC50 [8]: 0.456 µM; IC50 [9]: 0.833 µM
CC(C)NC(=O)CC[C@@H](NS(=O)(=O)c1ccc([N+](=O)[O-])cc1)C(=O)O,11,37.5,43.5,271,10.6,–,–
CNC(=O)CC[C@@H](NS(=O)(=O)c1ccc([N+](=O)[O-])cc1)C(=O)O,5.69,20.5,24.4,417,20.8,–,–
Cc1ccc(S(=O)(=O)N[C@H](CCC(=O)NCc2ccccc2)C(=O)O)cc1,1.99,17.5,19.7,293,3.57,> 2,IC50 [7]: 17.2 µM; IC50 [10]: 1.24 µM; Activity [22]: 56.4%; Activity [23]: 29.1%; Activity [24]: 14.7%; Activity [25]: 12%; Activity [26]: 39.7%; Activity [27]: Tde; Activity [28]: Active; Activity [29]: Active; Activity [30]: Active; Activity [31]: Active; Activity [32]: Active; Activity [33]: inactive; Activity [34]: inactive; Activity [35]: Active; Activity [36]: Active; Activity [37]: Active; Activity [38]: Active; Activity [39]: 20.1%
